The term IC50 denotes the midpoint of a concentration-inhibition curve.

For twelve compounds, IC50 results are on record in US12084434B2 (Scorpion Therapeutics, Inc., priority 2021, dated 2024).

Bounds are passed on as bounds.

The test system of the assay is T47D pAKT (S473), PI3Kα H1047R mutation present. Nature of the assay: HTRF pAKT-T47D.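 Note: assay medium was RPMI with 10% FBS and 0.2 units/ml bovine insulin, without phenol red.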 Conditions: read-out: T47D pAKT IC50; T47D.1 cells, pAKT (S473) HTRF, 1 hour. (In general: TR-FRET usually uses a lanthanide donor and a delayed reading to cut background.)

For `CCc1c(C(NC(=O)Nc2cnc(N)nc2)C(F)(F)F)oc2ccc(F)cc12` (racemic) [Compound 132, 1-(2-aminopyrimidin-5-yl)-3-[1-(3-ethyl-5-fluoro-1-benzofuran-2-yl)-2,2,2-trifluoroethyl]urea], the IC50 was under 1000 nM.

For `CCc1c(C(NC(=O)Nc2cnc(N)nc2)C(F)(F)F)oc2ccc(F)cc12` (racemic) [Compound 133, 1-(2-aminopyrimidin-5-yl)-3-[1-(3-ethyl-5-fluoro-1-benzofuran-2-yl)-2,2,2-trifluoroethyl]urea], the IC50 was over 5000 nM.

Regarding `Cc1c(C(NC(=O)Nc2cnc(N3CC(O)C3)nc2)C(F)(F)F)oc2ccc(Cl)cc12` (racemic) [Compound 153, 3-[1-(5-chloro-3-methyl-1-benzofuran-2-yl)-2,2,2-trifluoroethyl]-1-[2-(3-hydroxyazetidin-1-yl)pyrimidin-5-yl]urea], the IC50 is over 5000 nM.

Regarding `Cc1c(C(NC(=O)Nc2cnc(N3CC(O)C3)nc2)C(F)(F)F)oc2ccc(Cl)cc12` (racemic) [Compound 154, 3-[1-(5-chloro-3-methyl-1-benzofuran-2-yl)-2,2,2-trifluoroethyl]-1-[2-(3-hydroxyazetidin-1-yl)pyrimidin-5-yl]urea], the IC50 was under 1000 nM.

As for `Cc1c(C(NC(=O)Nc2cnc(N)nc2)C(F)(F)F)oc2c(F)cc(Cl)cc12` (racemic) [Compound 155, 1-(2-aminopyrimidin-5-yl)-3-[1-(5-chloro-7-fluoro-3-methyl-1-benzofuran-2-yl)-2,2,2-trifluoroethyl]urea], the concentration for half-maximal inhibition (IC50) is over 5000 nM.

For `Cc1c(C(NC(=O)Nc2cnc(N)nc2)C(F)(F)F)oc2c(F)cc(Cl)cc12` (racemic) [Compound 156, 1-(2-aminopyrimidin-5-yl)-3-[1-(5-chloro-7-fluoro-3-methyl-1-benzofuran-2-yl)-2,2,2-trifluoroethyl]urea], the 50% inhibitory concentration (IC50) was under 1000 nM.

For the compound `Cc1c(C(NC(=O)Nc2cnc(N3CC(O)C3)nc2)C(F)(F)F)oc2c(F)cc(Cl)cc12` (racemic) [Compound 157, 3-[1-(5-chloro-7-fluoro-3-methyl-1-benzofuran-2-yl)-2,2,2-trifluoroethyl]-1-[2-(3-hydroxyazetidin-1-yl)pyrimidin-5-yl]urea], the IC50 is under 1000 nM.

In the case of `Cc1c(C(NC(=O)Nc2cnc(N3CC(O)C3)nc2)C(F)(F)F)oc2c(F)cc(Cl)cc12` (racemic) [Compound 158, 3-[1-(5-chloro-7-fluoro-3-methyl-1-benzofuran-2-yl)-2,2,2-trifluoroethyl]-1-[2-(3-hydroxyazetidin-1-yl)pyrimidin-5-yl]urea], the half-inhibitory concentration (IC50) is over 5000 nM.

`Cc1c(C(NC(=O)Nc2cnc(N3CC4(COC4)C3)nc2)C(F)(F)F)oc2c(F)cc(F)cc12` (racemic) [Compound 171, 1-(2-(2-oxa-6-azaspiro[3.3]heptan-6-yl)pyrimidin-5-yl)-3-(1-(5,7-difluoro-3-methylbenzofuran-2-yl)-2,2,2-trifluoroethyl)urea]: the IC50 is over 5000 nM.

In the case of `Cc1c(C(NC(=O)Nc2cnc(N3CC4(COC4)C3)nc2)C(F)(F)F)oc2c(F)cc(F)cc12` (racemic) [Compound 172, 1-(2-(2-oxa-6-azaspiro[3.3]heptan-6-yl)pyrimidin-5-yl)-3-(1-(5,7-difluoro-3-methylbenzofuran-2-yl)-2,2,2-trifluoroethyl)urea], the IC50 is under 1000 nM.

On to `Cc1c(C(NC(=O)Nc2cnc(N)nc2)C(F)(F)F)oc2c(Cl)cc(F)cc12` (racemic) [Compound 177, 1-(2-aminopyrimidin-5-yl)-3-[1-(7-chloro-5-fluoro-3-methyl-1-benzofuran-2-yl)-2,2,2-trifluoroethyl] urea], for which the IC50 was over 5000 nM.

In the case of `Cc1c(C(NC(=O)Nc2cnc(N)nc2)C(F)(F)F)oc2c(Cl)cc(F)cc12` (racemic) [Compound 178, 1-(2-aminopyrimidin-5-yl)-3-[1-(7-chloro-5-fluoro-3-methyl-1-benzofuran-2-yl)-2,2,2-trifluoroethyl] urea], the IC50 was under 1000 nM.
